Experimental data reported in patent publication US8173653B2, “Pyridiazinone derivatives for the treatment of tumours” (Merck Patent Gesellschaft MIT Beschraenkter Haftung, priority 2005, dated 2012).

Key:
Met kinase = molecular target: T1, Met kinase (Homo sapiens, UniProt P08581); assay: Met kinase inhibition (enzyme assay), flashplate method; assay type: biochemical
T1 construct: 6His (N); purchased Upstate 14-526; host or cells: insect cells (Sf21; S. frugiperda), baculovirus
Protocol: Flashplate Method (Met Kinase)
The test plates used are 96-well Flashplate® microtitre plates from Perkin Elmer (Cat. No. SMP200). The components of the kinase reaction described below are pipetted into the assay plate. The Met kinase and the substrate poly Ala-Glu-Lys-Tyr, (PAGLT, 6:2:5:1), are incubated for 3 hrs at room temperature with radioactively labelled ^33P-ATP in the presence and absence of test substances in a total volume of 100 μl. The reaction is terminated using 150 μl of a 60 mM EDTA solution. After incubation for a further 30 min at room temperature, the supernatants are filtered off with suction, and the wells are washed three times with 200 μl of 0.9% NaCl solution each time. The measurement of the bound radioactivity is carried out by means of a scintillation measuring instrument (Topcount NXT, Perkin-Elmer).
The full value used is the inhibitor-free kinase reaction. This should be approximately in the range 6000-9000 cpm. The pharmacological zero value used is staurosporin in a final concentration of 0.1 mM. The inhibitory values (IC50) are determined using the RS1_MTS program.
Kinase reaction conditions per well: • 30 μl of assay buffer • 10 μl of substance to be tested in assay buffer with 10% of DMSO • 10 μl of ATP (final concentration 1 μM cold, 0.35 μCi of ^33P-ATP) • 50 μl of Met kinase/substrate mixture in assay buffer; (10 ng of enzyme/well, 50 ng of pAGLT/well)
Assay Buffer: • 50 mM HEPES • 3 mM magnesium chloride • 3 μM sodium orthovanadate • 3 mM manganese(II) chloride • 1 mM dithiothreitol (DTT) • pH=7.5 (to be set using sodium hydroxide)

TPR-Met/NIH3T3 cells = assay: In-vivo test: subcutaneous TPR-Met/NIH3T3 tumour in Balb/C mice, tumour volume; conditions: female Balb/C mice, 200 mg/kg daily by gastric tube, 9 days
Protocol: Experimental procedure: Female Balb/C mice (breeder: Charles River Wiga) were 5 weeks old on arrival. They were acclimatised to our keeping conditions for 7 days. Each mouse was subsequently injected subcutaneously in the pelvic area with 4 million TPR-Met/NIH3T3 cells in 100 μl of PBS (without Ca++ and Mg++).
Measurement of the tumour volume: The length (L) and breadth (B) were measured using a Vernier calliper, and the tumour volume was calculated from the formula L×B×B/2.
Keeping conditions: 4 or 5 animals per cage, feeding with commercial mouse food (Sniff).

T1 sequence (P08581 974-1390 limits assumed): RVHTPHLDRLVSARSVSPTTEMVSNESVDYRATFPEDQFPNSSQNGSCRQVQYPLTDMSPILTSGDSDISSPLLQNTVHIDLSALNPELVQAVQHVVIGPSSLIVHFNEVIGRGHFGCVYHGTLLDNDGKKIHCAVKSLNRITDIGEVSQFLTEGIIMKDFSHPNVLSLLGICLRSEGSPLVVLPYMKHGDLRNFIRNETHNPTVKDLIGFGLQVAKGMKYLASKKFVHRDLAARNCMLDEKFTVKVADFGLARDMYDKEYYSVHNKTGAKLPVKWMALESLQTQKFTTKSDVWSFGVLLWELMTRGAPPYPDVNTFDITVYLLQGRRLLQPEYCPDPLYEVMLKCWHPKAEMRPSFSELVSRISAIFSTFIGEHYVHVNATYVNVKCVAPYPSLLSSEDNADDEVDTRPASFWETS

SMILES: CN1CCN(CCCOC(=O)Nc2cccc(Cn3nc(-c4cc(F)cc(F)c4)ccc3=O)c2)CC1 [A91, 3-(4-Methylpiperazin-1-yl)propyl {3-[3-(3,5-difluorophenyl)-6-oxo-6H-pyridazin-1-ylmethyl]phenyl}carbamate]
- IC50 (Met kinase): 10 to 1000 nM
- antitumoural action (tumour volume) (TPR-Met/NIH3T3 cells): significant antitumoural action
